According to patent publication US9676820B2, “Method for inhibiting proliferation of high LIX1L-expressing tumor cell, and tumor cell proliferation-inhibiting peptide” (National University Corporation Hamamatsu University School …, priority 2013, dated 2017):
“Also recorded” adds a separate entry of the source.

Key:
Type in all cases: cell-based
RPMI8226 strain [1] = test: Viable cell counts (Trypan blue staining), RPMI8226 strain; details: 5 μM peptide, up to 72 hours, vs untreated
Experimental: Specifically, cells plated such that the density thereof became 1×10^4 cells/3.5 cm well for one plate (6 wells/plate) for each cell strain were cultured for one night in a culture solution having the same composition as those of the culture solutions described in the reference examples. After culturing of 1 well out of the 6 wells was completed, Trypan blue staining was performed on the 1 well, and viable cell counts were counted. The remaining 5 wells were cultured after exchanging the culture solution with a liquid mixture of a Lipofectamine (registered trademark) reagent (12.5 μL/well) and a culture solution (2 mL/well) of which the shRNA concentration became 2.5 μg/well. Then, Trypan blue staining was performed on 1 well 24 hours after the exchange of a culture medium, 1 well 48 hours after the exchange of a culture medium, and the remaining 1 well 72 hours after the exchange of a culture medium, and the viable cell counts were counted. As a control, the viable cell counts were measured (untreated) by performing the culturing similarly to the above except that a culture medium was exchanged with a culture solution to which no shRNA was added. […]

RPMI8226 strain [2] = test: MTT assay, RPMI8226 strain; details: peptide 0 μM to 100 μM, 72 hours
Experimental: (§1) Specifically, first, cells plated in a 96-well microplate such that the density thereof became 5×10^3 cells/well were cultured for one night in a culture solution having the same composition as those in the reference examples. Thereafter, the culture solution was exchanged with 100 μL of a culture solution of which the concentration of peptides is 0 μM to 100 μM for culturing for 72 hours. After the culturing, an MTT-containing PBS solution was added to the culture solution, and the mixture was incubated for 4 hours. Then, formazan which was generated by putting 100 μL of isopropanol (containing 34 (v/v) % of hydrochloric acid) into each of the wells was dissolved. The absorbance of each of the wells of the microplate at 570 nm was measured using a microplate reader. As controls, culturing was performed in the same manner except that no peptide was added to the strains, an MTT assay was performed thereon, and the absorbance at 570 nm was measured (untreated).
(§2) Specifically, the cells were cultured for 72 hours similarly to Example 2 except that a peptide to be added to a cell strain was set to peptide 1, 3, or 4, or a control peptide, an MTT assay was performed thereon, and the absorbance at 570 nm was measured.

U937 strain = test: MTT assay, U937 strain
Experimental: as §1, §2
(§3) In the method for measuring the viable cell counts, cells were cultured for 3 days similarly to Example 1 except that a 25 μM (10 μM for an HL-60 strain, a K562 strain, and a U937 strain) culture solution containing a control peptide or a peptide 1 was used, and the viable cell counts were measured. As a comparison, culturing was performed similarly to the above using a culture solution containing no peptide, and the viable cell counts were measured (untreated).
(§4) In addition, in the method for performing an MTT assay, cells were cultured for 72 hours similarly to Example 2 except that a peptide to be added to a strain was set to a control peptide or a peptide 1 at 25 μM (10 μM for an HL-60 strain, a K562 strain, and a U937 strain), an MTT assay was performed thereon, and the absorbance at 570 nm was measured. As a comparison, culturing was performed similarly to the above using a culture solution containing no peptide, and the MTT assay was performed thereon (untreated).

293 FLG/LIX1L [3] = test: Colony formation assay (agarose), 293 FLG/LIX1L cells (Example 9); details: 293 FLG/LIX1L/PY136 cells, 14 days
Experimental: In the colony formation assay, the 293 FLG cells, the 293 FLG/LIX1L cells, and the 293 FLG/LIX1L/PY136 cells were respectively mixed in 10% FCS-containing DMEM culture media, to which 0.4% agarose was added, and the mixtures were gently placed on 0.6% agarose- and 10% FCS-containing DMEM culture media for culturing for 14 days. Thereafter, the influence of LIX1L and PY136 on cell proliferation was evaluated by counting the number of colonies in each well using an optical microscope (manufactured by Zeiss).

293 FLG/LIX1L [4] = test: MTT assay, 293 FLG/LIX1L cells
Experimental: as §1, with “Thereafter, the culture solution was exchanged with 100 μL of a culture solution of which the concentration of peptides is 0 μM to 100 μM for culturing for 72 hours.” left out
as §3, §4
Specifically, the cells were cultured for 72 hours similarly to Example 2 except that a peptide to be added to a cell was set to a peptide 1, 2, 5, or 6, MTT assays were performed thereon, and the absorbance at 570 nm was measured. As a comparison, culturing was performed similarly to the above using a culture solution containing no peptide, and the MTT assay was performed thereon (untreated).
Specifically, the cells were cultured for 72 hours similarly to Example 2 except that peptides to be added to cell strains were set to peptides 7 to 14, MTT assays were performed thereon, and the absorbance at 570 nm was measured. […]
Specifically, the cells were cultured for 72 hours similarly to Example 2 except that a peptide to be added to a cell strain was set to a peptide 15 or 16, an MTT assay was performed thereon, and the absorbance at 570 nm was measured. […]

K562 strain = test: Viable cell counts (Trypan blue staining), K562 strain; details: 5 μM peptide, vs untreated
Experimental: Specifically, cells plated such that the density thereof became 1×10^4 cells/3.5 cm well for one plate (6 wells/plate) for each cell strain were cultured for one night in a culture solution having the same composition as those of the culture solutions described in the reference examples. After culturing of 1 well out of the 6 wells was completed, Trypan blue staining was performed on the 1 well, and viable cell counts were counted. The remaining 5 wells were cultured after exchanging the culture solution with a liquid mixture of a Lipofectamine (registered trademark) reagent (12.5 μL/well) and a culture solution (2 mL/well) of which the shRNA concentration became 2.5 μg/well. Then, Trypan blue staining was performed on 1 well 24 hours after the exchange of a culture medium, 1 well 48 hours after the exchange of a culture medium, and the remaining 1 well 72 hours after the exchange of a culture medium, and the viable cell counts were counted. As a control, the viable cell counts were measured (untreated) by performing the culturing similarly to the above except that a culture medium was exchanged with a culture solution to which no shRNA was added.
Specifically, the viable cell counts were measured after culturing the cells similarly to Example 1 except that a 5 μM culture solution containing a control peptide, a peptide 1, or a peptide 2 was used instead of the culture solution (2 mL/well) of which the shRNA concentration was 2.5 μg/well. The viable cell counts were measured (untreated) by performing the culturing similarly to Example 1 using a culture solution containing no peptide 2, as a control.

CC(C)[C@H](NC(=O)[C@H](Cc1ccc(O)cc1)NC(=O)[C@H](CS)NC(=O)[C@@H](NC(=O)[C@H](Cc1ccc(O)cc1)NC(=O)[C@@H]1CCCN1C(=O)[C@@H]1CCCN1C(=O)[C@H](CO)NC(=O)[C@H](CC(N)=O)NC(=O)[C@H](CO)NC(=O)[C@@H]1CCCN1C(=O)CCCCCNC(=O)[C@H](CCCNC(=N)N)NC(=O)[C@H](CCCNC(=N)N)NC(=O)[C@H](CCCNC(=N)N)NC(=O)[C@H](CCC(N)=O)NC(=O)[C@H](CCCNC(=N)N)NC(=O)[C@H](CCCNC(=N)N)NC(=O)[C@H](CCCCN)NC(=O)[C@H](CCCCN)NC(=O)[C@H](CCCNC(=N)N)NC(=O)CNC(=O)[C@@H](N)Cc1ccc(O)cc1)C(C)C)C(N)=O [peptide 1, YGRKKRRQRRR-X-PSNSPPYVCYV-NH2]
viable cell counts (RPMI8226 strain [1]): the same as those in the untreated case
absorbance at 570 nm (MTT assay), influence on cell proliferation (RPMI8226 strain [2]): no effect of inhibiting the cell proliferation; also recorded: not inhibited
absorbance at 570 nm (MTT assay), cell proliferation (U937 strain; peptide 0 μM to 100 μM, 72 hours): inhibited
cell proliferation (viable cell counts and MTT assay) (U937 strain; peptide 10 μM, 3 days / 72 hours): inhibited
formation of colonies (colony formation assay) (293 FLG/LIX1L [3]): significantly inhibited
cell proliferation (MTT assay, absorbance at 570 nm) (293 FLG/LIX1L [4]; 72 hours, peptide concentrations up to 250 μM): inhibited
cell proliferation (viable cell counts and MTT assay) (293 FLG/LIX1L [4]; peptide 25 μM, 3 days / 72 hours): inhibited
viable cell counts (K562 strain; after 72 hours): very small
viable cell counts (K562 strain; after culturing for 24 hours): decreased
